Laboratory results taken from publication PMC10322702 (Nature Chemistry, 2023).
“And” between values parts separate entries of the source, which are not always exact repeats. Equal entries are not always repeated. Numbered stars: 1 amine (or outer) side, 2 acyl side, 3 side chain; on linkers, the order of the positions; unused ones are H or OH. Bridge positions count the residues as written; N and C are the ends. Square brackets hold non-standard residues; d marks the D form. Peptide text beside a SMILES is read from it. Acbc(cis-1,3) = O=C([C@H]1C[C@@H](N[*:1])C1)[*:2]; X1 = O=C([C@@H]1CC[C@H](N[*:1])C1)[*:2]

Experiments:
[1] = target: T1, SARS-CoV-2 M^pro (Severe acute respiratory syndrome coronavirus 2, UniProt P0DTD1); experiment: biochemical; format: binding; conditions: for kon: read-out: ka (kinetic association)
[2] = target: T1, SARS-CoV-2 M^pro; experiment: biochemical; format: biochemical
[3] = Serum stability assay in human serum (LC/MS); conditions: for Remaining peptide (%) / remaining at 0.5 h, 10 μM / remaining at 1 h, 10 μM / remaining at 2 h, 10 μM / remaining at 4 h, 10 μM / remaining at 8 h, 10 μM / remaining at 24 h, 10 μM / remaining at 50 h, 10 μM / remaining at 100 h, 10 μM: 37 °C, relative to 0 h = 100%, technical replicates; for half-life at 10 μM / remaining at 0.5 h, 10 μM / remaining at 1 h, 10 μM / remaining at 2 h, 10 μM / remaining at 4 h, 10 μM / remaining at 8 h, 10 μM / remaining at 24 h, 10 μM / remaining at 50 h, 10 μM / remaining at 100 h, 10 μM: human; for remaining at 0.5 h, 10 μM / remaining at 1 h, 10 μM / remaining at 2 h, 10 μM / remaining at 4 h, 10 μM / remaining at 8 h, 10 μM / remaining at 24 h, 10 μM / remaining at 50 h, 10 μM / remaining at 100 h, 10 μM: Remaining peptide (%)
[4] = incubation time 100 h, 6000 min

| Compound | Kd [1] | kd (kinetic dissociation) [1] | kon [1] | IC50 [2] | inhibition at 2.75 µM [2] | Remaining peptide (%) ([3]; incubation time 0.5 h, 30 min) | Remaining peptide (%) ([3]; incubation time 1 h, 60 min) | Remaining peptide (%) ([3]; incubation time 2 h, 120 min) | Remaining peptide (%) ([3]; incubation time 4 h, 240 min) | Remaining peptide (%) ([3]; incubation time 8 h, 480 min) | Remaining peptide (%) ([3]; incubation time 24 h, 1440 min) | half-life at 10 μM [3] | remaining at 0.5 h, 10 μM ([3]; incubation time 0.5 h) | remaining at 1 h, 10 μM ([3]; incubation time 1 h) | remaining at 2 h, 10 μM ([3]; incubation time 2 h) | remaining at 4 h, 10 μM ([3]; incubation time 4 h) | remaining at 8 h, 10 μM ([3]; incubation time 8 h) | remaining at 24 h, 10 μM ([3]; incubation time 24 h) | Remaining peptide (%) ([3]; incubation time 50 h, 3000 min) | Remaining peptide (%) [3, 4] | further results |
| --- | --- | --- | --- | --- | --- | --- | --- | --- | --- | --- | --- | --- | --- | --- | --- | --- | --- | --- | --- | --- | --- |
| CC[C@H](C)[C@@H]1NC(=O)[C@H](CO)NC(=O)[C@H](Cc2ccccc2)NC(=O)[C@H]2C[C@H](C2)NC(=O)[C@H](Cc2c[nH]cn2)NC(=O)[C@H](Cc2ccccc2)NC(=O)[C@@H](Cc2ccc(O)cc2)NC(=O)CSC[C@H](C(N)=O)NC(=O)[C@H](CC(C)C)NC(=O)[C@H](CCCNC(=N)N)NC(=O)[C@H](Cc2ccc(O)cc2)NC(=O)[C@H](CCCNC(=N)N)NC(=O)[C@H](Cc2ccccc2)NC1=O [GM2] ({CH2CO}-[dY]FH[Acbc(cis-1,3)]FSIFRYRL[dC]-NH2; thioether N-13) | 71 nM | 15 10^-3 s^-1 | 210000 M⁻¹ s⁻¹ | 1750 nM | 75.7% | 61.67% and 57.11% | 55.82% and 51.95% | 34.08% and 32.68% | 19.16% and 17.53% | 10.08% and 8.62% | 1.74% and 1.76% | 1.1 h | 57.7% | 48.3% | 36% | 17.5% | 9.99% | 1.85% | – | – | inhibition at 8.32 µM [2]: 96.8% |
| CC[C@H](C)[C@@H]1NC(=O)[C@H](Cc2ccc(O)cc2)NC(=O)[C@H](CC(C)C)NC(=O)[C@H](CC(=O)O)NC(=O)[C@H](CCCNC(=N)N)NC(=O)[C@H](Cc2ccccc2)NC(=O)[C@H](C)NC(=O)[C@H](Cc2c[nH]cn2)NC(=O)[C@H](Cc2ccccc2)NC(=O)[C@@H](Cc2ccc(O)cc2)NC(=O)CSC[C@H](C(N)=O)NC(=O)CNC(=O)[C@H](CC(C)C)NC1=O [GM5γ^24A] ({CH2CO}-[dY]FHAFRDLYILG[dC]-NH2; thioether N-13) | 61 nM | 8.7 10^-3 s^-1 | 140000 M⁻¹ s⁻¹ | 50 nM | – | – | 85.94% and 86.10% | 65.85% and 75.80% | 83.58% and 80.89% | 69.62% and 72.73% | 51.61% and 49.70% | 21 h | – | 89.2% | 75.3% | 82.3% | 70.9% | 45.5% | 25.37% and 24.58% | 8.38% and 8.41% | inhibition at 1.86 µM [2]: 100%; inhibition at 5.62 µM [2]: 100%; inhibition at 16.6 µM [2]: 100%; inhibition at 50.1 µM [2]: 100%; inhibition at […] [2]: 100%; remaining at 50 h, 10 μM ([3]; incubation time 50 h): 23%; remaining at 100 h, 10 μM ([3]; incubation time 100 h): 7.6% |
| CC(C)C[C@@H]1NC(=O)[C@H](CC(N)=O)NC(=O)[C@H](CC(C)C)NC(=O)[C@H]2C[C@H](C2)NC(=O)[C@H](CCC(N)=O)NC(=O)[C@H](Cc2ccccc2)NC(=O)[C@@H](Cc2ccc(O)cc2)NC(=O)CSC[C@H](C(N)=O)NC(=O)CNC(=O)[C@@H]2CCCN2C(=O)[C@H](CCCNC(=N)N)NC(=O)[C@H](Cc2ccc(O)cc2)NC(=O)CNC1=O [GM4H3Q] ({CH2CO}-[dY]FQ[Acbc(cis-1,3)]LNLGYRPG[dC]-NH2; thioether N-13) | 0.86 nM | 1.0 10^-3 s^-1 | 1.2e+06 M⁻¹ s⁻¹ | 10 nM | – | – | 98.03% and 94.19% | 84.19% and 81.93% | 100.31% and 98.70% | 92.68% and 86.88% | 77.71% and 81.24% | 82 h | – | 93.4% | 87.5% | 99.9% | 93.9% | 81.3% | 64.07% and 63.70% | 43.40% and 43.85% | fold change in binding affinity relative to the original peptide [1]: sixfold stronger; fold more potent inhibitory activity relative to GM4 [2]: fivefold more potent; inhibition at 0.186 µM [2]: 96%; inhibition at 0.55 µM [2]: 100%; inhibition at 1.66 µM [2]: 100%; inhibition at 5.01 µM [2]: 100%; remaining at 50 h, 10 μM ([3]; incubation time 50 h): 70.1%; remaining at 100 h, 10 μM ([3]; incubation time 100 h): 44.2% |
| CC(C)C[C@@H]1NC(=O)[C@@H](Cc2ccc(O)cc2)NC(=O)CSC[C@H](C(N)=O)NC(=O)[C@H](C)NC(=O)[C@H](C)NC(=O)[C@H](Cc2ccc(O)cc2)NC(=O)[C@H](CCCNC(=N)N)NC(=O)[C@H](Cc2ccc(O)cc2)NC(=O)[C@H](C)NC(=O)[C@H](CO)NC(=O)[C@H](Cc2ccc(O)cc2)NC(=O)[C@H]([C@@H](C)O)NC(=O)[C@H](CO)NC(=O)[C@H](C)NC(=O)[C@H](Cc2ccc(O)cc2)NC(=O)[C@H](Cc2c[nH]cn2)NC1=O [GM3γ^210A] ({CH2CO}-[dY]LHYASTYSAYRYAA[dC]-NH2; thioether N-16) | 7.5 nM | 2.1 10^-3 s^-1 | 280000 M⁻¹ s⁻¹ | 120 nM | 100% | 47.41% and 46.64% | 35.60% and 33.84% | 15.90% and 15.53% | 6.44% and 7.19% | 2.01% | – | 0.59 h | 44.4% | 33.1% | 17% | 7.23% | 2.04% | 0% | – | – | fold change in binding affinity relative to the original peptide [1]: eightfold stronger; inhibition at 0.309 µM [2]: 77.9%; inhibition at 0.933 µM [2]: 95.6%; inhibition at 8.32 µM [2]: 100% |
| CC(C)C[C@@H]1NC(=O)[C@@H](Cc2ccc(O)cc2)NC(=O)CSC[C@H](C(N)=O)NC(=O)[C@H](C)NC(=O)[C@H](C)NC(=O)[C@H](Cc2ccc(O)cc2)NC(=O)[C@H](CCCNC(=N)N)NC(=O)[C@H](Cc2ccc(O)cc2)NC(=O)[C@@H]2CC[C@@H](C2)NC(=O)[C@H](CO)NC(=O)[C@H](Cc2ccc(O)cc2)NC(=O)[C@H]([C@@H](C)O)NC(=O)[C@H](CO)NC(=O)[C@H](C)NC(=O)[C@H](Cc2ccc(O)cc2)NC(=O)[C@H](Cc2c[nH]cn2)NC1=O [GM3] ({CH2CO}-[dY]LHYASTYS[X1]YRYAA[dC]-NH2; thioether N-16) | 62 nM | 13 10^-3 s^-1 | 200000 M⁻¹ s⁻¹ | 2060 nM | 66.3% | 72.71% and 73.43% | 71.95% and 68.98% | 55.38% and 55.49% | 43.40% and 39.26% | 15.43% and 15.99% | – | 2.5 h | 67.7% | 60.8% | 48.5% | 45.6% | 15.7% | 0% | – | – | – |
| CC[C@H](C)[C@@H]1NC(=O)[C@H](Cc2ccc(O)cc2)NC(=O)[C@H](CC(C)C)NC(=O)[C@H](CC(=O)O)NC(=O)[C@H](CCCNC(=N)N)NC(=O)[C@H](Cc2ccccc2)NC(=O)[C@@H]2CC[C@@H](C2)NC(=O)[C@H](Cc2c[nH]cn2)NC(=O)[C@H](Cc2ccccc2)NC(=O)[C@@H](Cc2ccc(O)cc2)NC(=O)CSC[C@H](C(N)=O)NC(=O)CNC(=O)[C@H](CC(C)C)NC1=O [GM5] ({CH2CO}-[dY]FH[X1]FRDLYILG[dC]-NH2; thioether N-13) | 5.2 nM | 1.2 10^-3 s^-1 | 240000 M⁻¹ s⁻¹ | 40 nM | – | – | 101.31% and 104.14% | – | 77.04% and 80.18% | 83.97% and 82.30% | 66.27% and 59.32% | 32 h | – | 101% | – | 78.7% | 83% | 58.4% | 29.51% and 26.23% | 20.75% and 19.44% | inhibition at 1.86 µM [2]: 100%; inhibition at 5.62 µM [2]: 100%; inhibition at 16.6 µM [2]: 100%; inhibition at 50.1 µM [2]: 100%; inhibition at […] [2]: 100%; remaining at 50 h, 10 μM ([3]; incubation time 50 h): 30.7%; remaining at 100 h, 10 μM ([3]; incubation time 100 h): 19.9% |
